Measurements from patent publication US9901636B2, “Conjugate of a photosensitiser and chitosan and uses thereof” (PCI BIOTECH AS, priority 2012, dated 2018).

Experiments:
[1] = Fluorescence quantum yield, steady-state comparative method vs anthracene; type: physicochemical; settings: DMSO at room temperature
Description: UV-Vis measurements were recorded on a Perkin-Elmer Lambda 25 UV-Vis. spectrometer equipped with a Peltier Temperature Programmer. Fluorescence emission spectra were obtained using a SPEX FluoroMax spectrometer, using a cell with spectral range 170-2200 nm (Spectrocell Corporation, Oreland, Pa., USA). Absorption spectra were recorded at 20° C. and fluorescence emission spectra were recorded at ambient temperature, using quartz cuvette with a 10 mm path length. All the fluorescence spectra were recorded with constant slit widths, 1 nm for excitation and 1 nm for emission and fluorescence spectra were averaged over three scans for quantum yield study. However, for FIG. 5 (III) fluorescence spectra were obtained with slit widths 3 nm for excitation and 3 nm for emission.
Fluorescence quantum yields of compounds 3, 5, 16A-19B (all excited at Δex.=λmax=419 nm) were determined relative to a dilute solution of standard anthracene (φF=0.27, λex=365.5 nm) in absolute ethanol by using the steady-state comparative method. using the following equation: φX=φST(GradX/GradST)(ηS^2,ηST^2) where, the subscripts ST and X denote standard and test respectively, φ is the fluorescence quantum yield, Grad the gradient from the plot of integrated fluorescence intensity versus absorbance, and η the refractive index of the solvent.

[2] = Partitioning in aqueous:CHCl3 two-phase system; type: physicochemical; settings: two-phase H2O/CHCl3 system (FIG. 6)
Description: (A) TPP(p-NH2)13 (B) TPPNH-Pip 5 (C) TPPp0.25-CS-TMA0.75 17A (D) TPPp0.25-CS-MP0.75 19A. Aqueous phases are shown on top.
In the ^1H NMR spectra of final compound TPPp0.1-CS-MP0.9 18A all peaks of the chitosan backbone along with the 1-methyl piperazine peaks can be clearly identified; however there is no observable NMR signal of the TPP moiety (FIG. 5E). […] In d6-DMSO the TPP peaks could be observed but in this case the chitosan backbone peaks were broadened and not clearly identifiable. […] The TPPp0.1-CS-MP0.9 18A has a dark red color confirming the presence of the PS.

[3] = Bhaumik et al., excited at 418 nm in DMF, TPP as standard; cited from earlier work
[4] = Table 4, λabs 420 nm, λem 653 nm
[5] = Table 2, excited at 419 nm, standard anthracene

| Quantum Yield (φF) [1, 4] | Quantum Yield (φF) [1, 5] | Partitioning between aqueous and organic phase [2] | Compound | Fluorescence quantum yield (φF), literature value [3] |
| --- | --- | --- | --- | --- |
| 0.01331 |  |  | 5-(4-Carboxyphenyl)-10,15,20-triphenylchlorin [Compound 26] |  |
|  | 0.0036 | did not partition into the aqueous phase | O=C(CN1CCNCC1)Nc1ccc(-c2c3nc(c(-c4ccccc4)c4ccc([nH]4)c(-c4ccccc4)c4nc(c(-c5ccccc5)c5ccc2[nH]5)C=C4)C=C3)cc1 [Compound 5, 5-(4α-Piperazineacetylamidophenyl)-10,15,20-triphenylporphyrin] |  |
|  | 0.0002 | did not partition into the aqueous phase | Nc1ccc(-c2c3nc(c(-c4ccccc4)c4ccc([nH]4)c(-c4ccccc4)c4nc(c(-c5ccccc5)c5ccc2[nH]5)C=C4)C=C3)cc1 [Compound 3, 5-(4-Aminophenyl)-10,15,20-triphenylporphyrin, reference compound] | 0.05 |
| 0.00246 |  |  | Nc1ccc(-c2c3nc(c(-c4ccccc4)c4ccc([nH]4)c(-c4ccccc4)c4nc(c(-c5ccccc5)c5ccc2[nH]5)C=C4)CC3)cc1 [Compound 20, 5-(4-Aminophenyl)-10,15,20-triphenylchlorin] |  |
